These are literature values, as cited in patent publication US9884121B2, “Biomaterials and a method for making and using same” (Alumend, LLC, priority 2007, dated 2018).

The series concerns Skin-to-skin. The conditions noted are these: U.S. Pat. No. 5,817,303.

On to `C=C(C#N)C(=O)OCC` [Ethyl cyanoacrylate], for which the “Shear Strength” value was 385 ± 119 g-f/cm^2.
